The subject of assay [1] is LPS-induced plasma IL-6 production. Briefly: LPS-induced plasma cytokine production in mouse, IL-6. To be noted: oral 1 h before LPS 0.4 mg/kg i.p. The class given is in vivo, Balb/c mice. The method, then:
(§1) Alternately, the compound is screened for its ability to inhibit the LPS-induced cytokine production in rat plasma according to the method reported in the literature (Ziegelbauer K, Gantner F, Lukacs N W, et al. Br J. Pharmacol. 2005,145(2):178-92). Briefly, Lewis rats (male, body weight 140 g-180 g) are used in the experiments. Animals (8/group) are given 1 to 100 mg/kg of the testing compound (suspension in 35% solutol & 60% PEG400 & 5% PG) or vehicle by oral gavage at 1 h prior to intraperitoneal administration of LPS 0.4 mg/kg. Ninety minutes after the intraperitoneal administration of LPS, blood is collected in heparin anticoagulated tubes to measure TNFα using R&D System ELISA Kit based on the general Kit protocols. The plasma sample is diluted 100 fold with the dilution buffer and 50 μL of diluted sample is used in each measurement. The plate is read on a SPECTRAMAX® M2e Plus Plate Reader and TNFα levels are analyzed based on the standard curve. The drug levels in plasma are measured with LC-MS-MS. […] Alternately, the compound is screened for its ability to inhibit the LPS-induced cytokine production in mouse plasma. Balb/c mice (female, body weight 18-20 g) are used in the experiments. […] The plate is read on a SPECTRMAX® M2e Plus Plate Reader and the data is analyzed using a standard curve.

Assay [2] relates to LPS-induced plasma IL-1β production. Briefly: LPS-induced plasma cytokine production in mouse, IL-1β. The class given is in vivo, Balb/c mice. As to conditions: even at the dose of 100 mg/kg. How it is done:
as §1

For assay [3], the system named is OVA-induced airway inflammation. Briefly: OVA-induced pulmonary inflammation in Brown-Norway rats. As to conditions: Rattus norvegicus, 480 h; BN rats, 0.3 to 30 mg/kg oral bid, day 20 and 21; read-out: ED50, increase of total cells and eosinophiles in BAL fluids. In kind it is in vivo. The method, then: To evaluate the effects of IKKβ inhibitors on antigen-driven airway inflammation in vivo, the compound is also tested in OVA-induced pulmonary inflammation model in rats essentially as described in a method reported in the literature (Yamamoto N, Takeshita K, Shichijo M, Kokubo T, Sato M, Nakashima K, Ishimori M, Nagai H, Li Y F, Yura T, Bacon K B. J Pharm. Exp Ther. 2003; 306(3):1174-81). Briefly, male BN rats weighing from 240 to 260 g are sensitized by intraperitoneal injection of 1 mL of saline containing 1 mg of OVA and 13 mg of aluminum hydroxide on days 1, 2 and 3. Rats serving as normal control received 1 mL of saline instead of OVA. The test compound at doses of 0.3, 1, 3 and 30 mg/kg (bid) is orally administered to rats on day 20 and 21. On day 21 rats are challenged with 1% OVA for 15 minutes with Buxco Mass Dosing System. On day 22, rats are anesthetized with 1% Pentobarbital Sodium. The thoracic and abdominal cavities are opened. Plasma is collected from centrifuged specimens. The trachea is dissected and transected. Through the insertion of an 18-gauge catheter into the trachea, the lungs are lavaged with a total of 15 mL of sterile PBS, and then placed into a specimen container. Cell-free BAL supernatants are obtained by centrifugation of BAL fluids. All serum and BAL supernatants are stored at −80° C. until use. […]

The subject of assay [4] is SKOV-3x-FF-luci human ovarian cancer xenograft. Briefly: Antitumor effect in SKOV-3x-FF-luci xenograft with vincristine (VCR). In kind it is in vivo, Balb/c nu/nu mice. How it is done: In order to expand the anti-tumor spectrum, more combination testing is explored. Based on in vitro synergistic effect of Example 1 and VCR, the compound is tested for its anti-tumor effects in SKOV-3x-FF-luci xenograft in the presence/absence of VCR. The SKOV-3x-FF-luci human ovarian cancer line (ATCC) is cultured in McCoy's 5a medium containing 10% FCS. Female Balb/c nu/nu mice (6-7 weeks old) are peritoneally injected with 0.2 mL of cell suspension containing 2×10^6 cells. Mice are divided into nine groups six days after cell implantation. The test compound is orally administered twice a day at 60 mg/kg for 20 consecutive days or at 90 mg/kg with a 2 days on and 5 days off dosing schedule. VCR at 1 or 0.3 mg/kg is administered via tail vein injection, once a week. In the combination group, VCR is given 1 h after the administration of the test compound. Mice from the control group are administered with the oral vehicle (10% Acacia at pH2.1) and intraperitoneally injected with saline. At the end of the treatment, all mice are euthanized with CO2 and tumors in the peritoneal cavity, diaphragmatic muscle, mesenterium, liver, spleen, and ovaries are harvested with surgery scissors and weighted. […] In the combination group, tumor growth is inhibited by 76% and 74%. Compared with monotherapy, statistical significance is found between combination and monotherapy.

Counter-ions that a name gives are not always drawn.

For the molecule `Cl.O=C(NC1CC1)c1cccc2[nH]c(-c3nc(N[C@@H]4CCC[C@H]4O)ncc3Cl)cc12` [Example 2, 2-{5-Chloro-2-[(1R,2R)-2-hydroxycyclopentylamino]pyrimidin-4-yl}-N-cyclopropyl-1H-indole-4-carboxamide hydrochloride], the 50% effective dose (ED50) in assay [1] was 15.1 mg/kg; in assay [3], 0.49 mg/kg. For the same molecule, the “effect on IL-1β production” value in assay [2] was “no effect was observed”.
As to `O=C(NC1CC1)c1cccc2[nH]c(-c3nc(N[C@@H]4CCC[C@@H]4O)ncc3Cl)cc12` [Example 1, 2-{5-Chloro-2-[(1R,2S)-2-hydroxycyclopentylamino]pyrimidin-4-yl}-N-cyclopropyl-1H-indole-4-carboxamide hydrochloride], the tumor growth inhibition came to 42% in assay [4] (Example 1 alone 60 mg/kg oral twice a day, 20 days); 36% in assay [4] (Example 1 alone 90 mg/kg, 2 days on and 5 days off); 76% in assay [4] (combination group: Example 1 60 mg/kg + VCR); 74% in assay [4] (combination group: Example 1 90 mg/kg + VCR).

The ED50 is the dose at which the effect has come halfway, by size or by number of responders.

The values above are taken from US8501166B2, “Pyrimidinyl indole compounds” (Hutchison Medipharma Limited, priority 2010, dated 2013).
